ChEMBL document CHEMBL1201862, “PubChem BioAssay data set” (2004)
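Interpolation was linear, between the two tested concentrations surrounding the appropriate level; five concentrations were tested over 48 hours in 96-well plates. GI50: concentration for 50% inhibition of growth.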 Active and inactive are the calls of the source. No stated cut-off is given here; in the data, active = GI50 up to about 1.1 µM and inactive = higher.

Columns and labels:
Experiment in all cases: inhibition of tumour cell growth, NCI panel, 48 h
786-0 = system: 786-0
A549 = system: A549
ACHN = system: ACHN
HCT-116 = system: HCT-116
HCT-15 = system: HCT-15
HL-60 = system: HL-60
HT-29 = system: HT-29
IGROV-1 = system: IGROV-1
NCI-H226 = system: NCI-H226
OVCAR-5 = system: OVCAR-5
OVCAR-8 = system: OVCAR-8
SK-MEL-2 = system: SK-MEL-2
SNB-75 = system: SNB-75
SR = system: SR
SW-620 = system: SW-620
DU-145 = system: DU-145
PC-3 = system: PC-3
RXF 393 = system: RXF 393
SNB-19 = system: SNB-19

| SMILES | GI50 (786-0) | GI50 (A549) | GI50 (ACHN) | GI50 (HCT-116) | GI50 (HCT-15) [µM] | GI50 (HL-60) | GI50 (HT-29) | GI50 (IGROV-1) | GI50 (NCI-H226) | GI50 (OVCAR-5) | GI50 (OVCAR-8) | GI50 (SK-MEL-2) | GI50 (SNB-75) | GI50 (SR) | GI50 (SW-620) | GI50 (DU-145) | GI50 (PC-3) | GI50 (RXF 393) | GI50 (SNB-19) |
| --- | --- | --- | --- | --- | --- | --- | --- | --- | --- | --- | --- | --- | --- | --- | --- | --- | --- | --- | --- |
| O=C(N/N=C(/c1nc2ccc([N+](=O)[O-])cc2[nH]c1=O)C(O)c1ccc([N+](=O)[O-])cc1)c1ccncc1 (centres undefined) | > 100 µM (inactive) | 69 µM (inactive) | 39.7 µM (inactive) | > 100 µM (inactive) | 23.1 | 26.4 µM (inactive) | > 100 µM (inactive) | > 100 µM (inactive) | > 100 µM (inactive) | > 100 µM (inactive) | > 100 µM (inactive) | > 100 µM (inactive) | > 100 µM (inactive) | > 100 µM (inactive) | > 100 µM (inactive) | – | – | – | – |
| CN(C)C(=O)C(F)(F)C(c1ccccc1)C1C(=O)N(C)C(=O)N(C)C1=O (centres undefined) | > 100 µM (inactive) | > 100 µM (inactive) | > 100 µM (inactive) | > 100 µM (inactive) | > 100 | – | – | – | > 100 µM (inactive) | > 100 µM (inactive) | > 100 µM (inactive) | > 100 µM (inactive) | > 100 µM (inactive) | – | > 100 µM (inactive) | > 100 µM (inactive) | > 100 µM (inactive) | > 100 µM (inactive) | > 100 µM (inactive) |
| Cc1cc2c(cc1Cl)SC(NNC(=O)c1ccccc1)=NS2(=O)=O | > 10 µM (inactive) | > 10 µM (inactive) | > 10 µM (inactive) | > 10 µM (inactive) | > 10 | > 10 µM (inactive) | > 10 µM (inactive) | > 10 µM (inactive) | > 10 µM (inactive) | > 10 µM (inactive) | > 10 µM (inactive) | > 10 µM (inactive) | > 10 µM (inactive) | – | > 10 µM (inactive) | > 10 µM (inactive) | > 10 µM (inactive) | > 10 µM (inactive) | > 10 µM (inactive) |
| C=CC1(CCC(Br)C(C)(C)Cl)CO1 (centres undefined) | > 10 µM (inactive) | > 10 µM (inactive) | > 10 µM (inactive) | > 10 µM (inactive) | > 10 | – | > 10 µM (inactive) | > 10 µM (inactive) | – | > 10 µM (inactive) | > 10 µM (inactive) | > 10 µM (inactive) | > 10 µM (inactive) | – | > 10 µM (inactive) | > 10 µM (inactive) | > 10 µM (inactive) | – | > 10 µM (inactive) |
| O=C(Cc1ccccc1)NNc1nc(NNC(=O)c2ccncc2)nc(Nc2ccc([N+](=O)[O-])cc2)n1 | > 10 µM (inactive) | > 10 µM (inactive) | > 10 µM (inactive) | > 10 µM (inactive) | 6.22 | – | > 10 µM (inactive) | > 10 µM (inactive) | – | > 10 µM (inactive) | > 10 µM (inactive) | – | > 10 µM (inactive) | > 10 µM (inactive) | > 10 µM (inactive) | > 10 µM (inactive) | 2.7 µM (inactive) | – | 6.56 µM (inactive) |
| C=C(Br)C(C)(Br)CCC(Br)C(C)(C)Br (centres undefined) | 22.5 µM (inactive) | 80.2 µM (inactive) | 57.7 µM (inactive) | 21.2 µM (inactive) | 34.8 | 23.1 µM (inactive) | 38.8 µM (inactive) | 19.7 µM (inactive) | 35.3 µM (inactive) | 35.5 µM (inactive) | 17.5 µM (inactive) | 24.5 µM (inactive) | 28.3 µM (inactive) | 13.4 µM (inactive) | 28.4 µM (inactive) | – | – | 46.6 µM (inactive) | – |
| O=C(c1ccccc1)N1OCCC1Nc1ccc(Br)cc1 (centres undefined) | > 10 µM (inactive) | 3.64 µM (inactive) | 0.615 µM (active) | 4.25 µM (inactive) | 0.604 | 3.47 µM (inactive) | 0.818 µM (active) | > 10 µM (inactive) | > 10 µM (inactive) | > 10 µM (inactive) | > 10 µM (inactive) | > 10 µM (inactive) | > 10 µM (inactive) | – | 0.818 µM (active) | 6.24 µM (inactive) | 2.04 µM (inactive) | > 10 µM (inactive) | > 10 µM (inactive) |
| CCOC(=O)/C(C[C@H]1OC(C)(C)O[C@@H]1[C@H]1COC(C)(C)O1)=N/O | > 100 µM (inactive) | > 100 µM (inactive) | > 100 µM (inactive) | > 100 µM (inactive) | > 100 | > 100 µM (inactive) | > 100 µM (inactive) | > 100 µM (inactive) | > 100 µM (inactive) | > 100 µM (inactive) | > 100 µM (inactive) | > 100 µM (inactive) | – | – | > 100 µM (inactive) | > 100 µM (inactive) | > 100 µM (inactive) | > 100 µM (inactive) | > 100 µM (inactive) |
| O=C1/C(=C/c2ccccc2)CCCC1CN1CCCCC1 (centres undefined) | 1.87 µM (inactive) | 17.5 µM (inactive) | 3.4 µM (inactive) | 1.68 µM (inactive) | 2.04 | – | 1.58 µM (inactive) | 2.97 µM (inactive) | 3.45 µM (inactive) | 18.6 µM (inactive) | 2.09 µM (inactive) | 4.56 µM (inactive) | 7.91 µM (inactive) | – | 1.33 µM (inactive) | 14.3 µM (inactive) | 11.4 µM (inactive) | 1.83 µM (inactive) | 15.7 µM (inactive) |
| CN(CCCNC(=O)c1nn(-c2ccc(Cl)cc2Cl)c2c1Cc1ccccc1-2)CCCNC(=O)c1nn(-c2ccc(Cl)cc2Cl)c2c1Cc1ccccc1-2 | 1.67 µM (inactive) | 1.77 µM (inactive) | 1.67 µM (inactive) | 1.7 µM (inactive) | 1.84 | 1.49 µM (inactive) | 1.73 µM (inactive) | 1.76 µM (inactive) | – | 1.57 µM (inactive) | 1.81 µM (inactive) | 1.92 µM (inactive) | 1.55 µM (inactive) | – | 1.48 µM (inactive) | 1.77 µM (inactive) | 1.73 µM (inactive) | 1.77 µM (inactive) | 1.77 µM (inactive) |
| C[C@H](NC(=O)C(C)(Cc1ccc(O)cn1)NC(=O)c1ccccc1)c1ccccc1 (some centres undefined) | > 100 µM (inactive) | > 100 µM (inactive) | > 100 µM (inactive) | > 100 µM (inactive) | > 100 | > 100 µM (inactive) | > 100 µM (inactive) | > 100 µM (inactive) | > 100 µM (inactive) | > 100 µM (inactive) | > 100 µM (inactive) | > 100 µM (inactive) | – | – | > 100 µM (inactive) | > 100 µM (inactive) | > 100 µM (inactive) | > 100 µM (inactive) | > 100 µM (inactive) |
| Cc1noc(-c2ccc(C(=O)O)[nH]2)c1Br | 29 µM (inactive) | 45.2 µM (inactive) | 38.3 µM (inactive) | 45.6 µM (inactive) | > 100 | – | > 100 µM (inactive) | 16.4 µM (inactive) | – | > 100 µM (inactive) | 15.8 µM (inactive) | 87.9 µM (inactive) | 26.6 µM (inactive) | – | 68.9 µM (inactive) | 37.9 µM (inactive) | > 100 µM (inactive) | 23.4 µM (inactive) | 37.4 µM (inactive) |
| COC(=O)c1cccc(C)c1C1CN=NC12Cc1cc(C)cc(C)c1C2=O (centres undefined) | 48.8 µM (inactive) | 33.5 µM (inactive) | 28.8 µM (inactive) | 22.8 µM (inactive) | 51.1 | 17.9 µM (inactive) | 24.7 µM (inactive) | 52.5 µM (inactive) | 61.5 µM (inactive) | > 100 µM (inactive) | 44.8 µM (inactive) | – | 24.9 µM (inactive) | 39 µM (inactive) | 29.7 µM (inactive) | 41.3 µM (inactive) | – | 29.4 µM (inactive) | 48.9 µM (inactive) |
| COc1ccc(C(=C(Cl)c2ccccc2)c2ccc(OC)cc2)cc1 | > 100 µM (inactive) | > 100 µM (inactive) | > 100 µM (inactive) | 48.1 µM (inactive) | > 100 | 57.8 µM (inactive) | 11.9 µM (inactive) | > 100 µM (inactive) | > 100 µM (inactive) | > 100 µM (inactive) | > 100 µM (inactive) | > 100 µM (inactive) | – | – | > 100 µM (inactive) | > 100 µM (inactive) | > 100 µM (inactive) | > 100 µM (inactive) | > 100 µM (inactive) |
| SC1=NNC2(C(S)=N1)c1ccccc1-c1ccccc12 | > 10 µM (inactive) | > 10 µM (inactive) | – | – | > 10 | > 10 µM (inactive) | > 10 µM (inactive) | > 10 µM (inactive) | 8.81 µM (inactive) | – | > 10 µM (inactive) | – | > 10 µM (inactive) | > 10 µM (inactive) | > 10 µM (inactive) | > 10 µM (inactive) | – | – | – |
| COc1c(OC(C)C)c(OC(C)C)c2oc(=O)n3c2c1C(c1ccccc1-n1c(C)ccc1C)C=C3 (centres undefined) | 80.7 µM (inactive) | 39.4 µM (inactive) | 48.8 µM (inactive) | 16.7 µM (inactive) | 61.8 | > 100 µM (inactive) | 12.6 µM (inactive) | 39.9 µM (inactive) | 17.1 µM (inactive) | > 100 µM (inactive) | 35.3 µM (inactive) | 95.9 µM (inactive) | 41.8 µM (inactive) | – | 32.5 µM (inactive) | 60.4 µM (inactive) | 14.2 µM (inactive) | 22 µM (inactive) | > 100 µM (inactive) |
| O=c1[nH]nc(-c2ccccc2)c(-c2ccccc2)c1-n1nc(-c2ccccc2)c2ccccc2c1=O | > 100 µM (inactive) | 83.4 µM (inactive) | 50.8 µM (inactive) | 83.9 µM (inactive) | 78 | – | 68.5 µM (inactive) | > 100 µM (inactive) | > 100 µM (inactive) | > 100 µM (inactive) | 92 µM (inactive) | 69 µM (inactive) | > 100 µM (inactive) | 52.1 µM (inactive) | 99.5 µM (inactive) | – | – | – | – |
